Test results as given in patent US9555055B2, “Use of albiflorin and metabolites thereof” (priority 2010, dated 2017).
Where a name gives a salt, the structure may show the parent alone. Marks after values point to notes of the source that are not given here.

Tests used:
Format in all cases: in vivo
ICR mice [1] = test: Sleeping-inducing test of pentobarbital sodium at the subthreshold dose; conditions: 14 days, pentobarbital sodium 35 mg/kg ip
Method: (§1) 140 ICR mice (15-17 g, male, purchased from Institute of Laboratory Animal Sciences, CAMS & PUMC) were randomly divided into 10 groups (14 mice per group) as follows: paeoniflorin group at a dose of 100 mg/kg, paeoniflorin group at a dose of 50 mg/kg, paeoniflorin group at a dose of 25 mg/kg, paeoniflorin group at a dose of 12.5 mg/kg, albiflorin group at a dose of 28 mg/kg, albiflorin group at a dose of 14 mg/kg, albiflorin group at a dose of 7 mg/kg, normal saline control group, high-dose group of doxepin as a positive drug (25 mg/kg), and low-dose group of doxepin as a positive drug (1 mg/kg).
(§2) If the mice were kept in a supine position for more than 1 min, it would be considered that the righting reflex was disappeared in mice. After spontaneously rolling over, the mice were immediately placed in a supine position. If the mice could roll over within 1 min, it would be considered that the righting reflex was recovered. The time of the righting reflex being disappeared and recovered in mice were recorded. The period from the mice being intraperitoneally injected with pentobarbital sodium until the righting reflex being disappeared in mice was recorded as sleep latency. The period from the righting reflex being disappeared in mice until the righting reflex being recovered in mice was recorded as sleep duration. The sleep duration of more than 5 min in mice was considered as being asleep.
(§3) The mice were administered with drugs for consecutive 14 days. 1 h after the last administration, the mice were intraperitoneally injected with the subthreshold dose of pentobarbital sodium (35 mg/kg, 0.1 ml/10 g). The righting reflex being disappeared and recovered in mice were observed, and the time of the righting reflex being disappeared and recovered in mice were recorded. The evaluation criteria of sleep latency, sleep duration and sleep rate were the same as those in Section 7.2.1.

ICR mice [2] = test: Spontaneous actions in mice; conditions: 14 days after administration
Method: as §1

ICR mice [3] = test: Sleep-prolonging test of pentobarbital sodium at the suprathreshold dose; conditions: 10 days, pentobarbital sodium 51 mg/kg ip
Method: as §2
as §3, with “10” for “14”, “suprathreshold” for “subthreshold”, “(51” for “(35”

5-HT1A receptor = test: mRNA expression of 5-HT1A receptor in hippocampus of chronic stress rats (RT-PCR); conditions: 2.5 mg/kg/d, 21 days
Method: After having free access to food and being deprived water for 24 h, 72 normal rats were administered with 1% sucrose aqueous solution, and measured the consumption within 1 h. According to the consumption of sucrose aqueous solution, the rats were randomly divided into six groups, 12 […] per group, i.e. normal control group, model group, positive drug Prozac group (2.5 mg/kg/d), high-dose group (70 mg/kg/d, comprising 11.2 mg of albiflorin), medium-dose group (35 mg/kg/d, comprising 5.6 mg of albiflorin), and low-dose group (17.5 mg/kg/d, comprising 2.8 mg of albiflorin) of Paeonia lactiflora Pall extract. When being modeled, the rats were simultaneously administered with drugs, once a day, for consecutive 21 days. […]
According to the instruction of TRIzol reagent, the total RNAs were extracted by one-step guanidine-isothiocyanate method. The integrity of the extracted total RNAs was confirmed by 0.9% agarose gel electrophoresis, and the content and purity of RNA were determined by UV spectrophotometer. […]
30 μl of 5-HT1A-R-amplified product and 10 μl of Actin-amplified product were mixed, and then subjected to 1.5% agarose gel electrophoresis. […] The ratio of IOD5-HTR/IODActin was the relative quantification of the amplified products, and the intergroup comparisons were carried out.

KM mice = test: Light-dark box test in mice (anti-anxiety test); conditions: 2.5 mg/kg/d gavage, 7 days, test 1 h after administration on Day 8
Method: Mice were randomly divided into 5 groups, i.e. high-dose group (14 mg/kg/d), medium-dose group (7 mg/kg/d), low-dose group (3.5 mg/kg/d) of Albiflorin, diazepam group (2.5 mg/kg/d), NS group. Gavage administration was performed once a day, for consecutive 7 days. During the administration, animals had free access to feed and water. The test was carried out 1 hour after the administration on Day 8.
Within the light-dark box (44 cm×21 cm×21 cm), the dark box accounts for one third thereof, with a cover on the top; while the light box accounts for two thirds thereof, providing illumination brightness; and there is a hole between the two boxes for animal to pass through. In the test, mice were placed in the center of the light box, back to the dark box, and then observed. The times of entering into the dark box followed by returning to the light box in mice were counted, as an index for the assession of anti-anxiety effect of a drug.

ICR mice [4] = test: Sleeping-inducing test of pentobarbital sodium at the subthreshold dose; conditions: 2 mg/kg, 14 days; pentobarbital sodium 35 mg/kg ip

With `C[C@@]12C[C@@]3(O)O[C@@H](O1)[C@]1(COC(=O)c4ccccc4)[C@H]3C[C@@]12O[C@@H]1O[C@H](CO)[C@@H](O)[C@H](O)[C@H]1O` [Paeoniflorin, paeoniflorin] the “Number of Sleeping Mice/Group” value (ICR mice [1]; 12.5 mg/kg) was 2, the “Sleep Rate” value (ICR mice [1]; 12.5 mg/kg) was 2/13 and the “Number of Sleeping Mice/Group” value (ICR mice [1]; 25 mg/kg) was 4. For the same compound, the “Sleep Rate” value (ICR mice [1]; 25 mg/kg) was 1/3, the “Number of Sleeping Mice/Group” value (ICR mice [1]; 50 mg/kg) was 5 and the “Sleep Rate” value (ICR mice [1]; 50 mg/kg) was 5/12. The “Number of Sleeping Mice/Group” value (ICR mice [1]; 100 mg/kg) was 3, the “Sleep Rate” value (ICR mice [1]; 100 mg/kg) was 3/11 and the “Times of Spontaneous Action” value (ICR mice [2]; 12.5 mg/kg) was 456.71 ± 93.95. The “Times of Spontaneous Action” value (ICR mice [2]; 25 mg/kg) was 468.71 ± 73.56, the “Times of Spontaneous Action” value (ICR mice [2]; 50 mg/kg) was 503.00 ± 137.04 and the “Times of Spontaneous Action” value (ICR mice [2]; 100 mg/kg) was 434.45 ± 76.43. The “Sleep Duration” value (ICR mice [3]; 12.5 mg/kg) was 74.57 ± 13.02 min, the “Sleep Latency” value (ICR mice [3]; 12.5 mg/kg) was 4.11 ± 1.52 min and the “Sleep Duration” value (ICR mice [3]; 25 mg/kg) was 68.64 ± 19.23 min. The “Sleep Latency” value (ICR mice [3]; 25 mg/kg) was 4.96 ± 2.18 min, the “Sleep Duration” value (ICR mice [3]; 50 mg/kg) was 73.70 ± 27.88 min and the “Sleep Latency” value (ICR mice [3]; 50 mg/kg) was 5.17 ± 1.37 min. For the same compound, the “Sleep Duration” value (ICR mice [3]; 100 mg/kg) was 72.98 ± 20.83 min and the “Sleep Latency” value (ICR mice [3]; 100 mg/kg) was 28.10 ± 44.63 min.
For `CNCCC(Oc1ccc(C(F)(F)F)cc1)c1ccccc1` (centres unmarked) [Positive Drug, fluoxetine hydrochloride], the “mRNA expression of 5-HT1A receptor (ratio IOD5-HTR/IODActin)” value (5-HT1A receptor) was 0.63 ± 0.21.
In the case of `CN(C)CCC=C1c2ccccc2COc2ccccc21.Cl` [Doxepin, Doxepin Hydrochloride], the “Number of Sleeping Mice/Group” value (ICR mice [1]; 1 mg/kg) is reported as 1, the “Sleep Rate” value (ICR mice [1]; 1 mg/kg) is reported as 1/12 and the “Times of Spontaneous Action” value (ICR mice [2]; 1 mg/kg) is reported as 420.50 ± 110.28. The “Sleep Duration” value (ICR mice [3]; 1 mg/kg) was 74.91 ± 16.55 min, the “Sleep Latency” value (ICR mice [3]; 1 mg/kg) was 4.38 ± 1.60 min and the “Sleep Duration” value (ICR mice [3]; 25 mg/kg) was 63.60 ± 12.09 min. The “Sleep Latency” value (ICR mice [3]; 25 mg/kg) was 4.72 ± 2.40 min.
With `CN1C(=O)CN=C(c2ccccc2)c2cc(Cl)ccc21` [Diazepam] the “Times of Returning from Dark Box back to Light Box” value (KM mice) was 13.6 ± 3.35, the “Number of Sleeping Mice/Group” value (ICR mice [4]) was 12 and the “Sleep Rate” value (ICR mice [4]) was 12/13*. The “Times of Spontaneous Action” value (ICR mice [2]; 2 mg/kg) was 301.85 ± 103.11.
